Test results taken from ChEMBL document CHEMBL5576038, “Design of a novel long-acting dual GLP-1/GIP receptor agonist” (Bioorg Med Chem, 2024).
Activity calls are given as the source filed them. The calls are words filed in the database; no cut-off is given here. Where a SMILES comes first, the peptide text is derived from it. [ ]: non-standard residue; d: D form. The star is where a group is joined. X1 = N[C@@H](CCCCNC(=O)CC[C@H](NC(=O)CCCCCCCCCCCCCCCCCCC(=O)O)C(=O)O)C(=O)NCCCC[C@H](N)C(=O)N[C@@H](CCCCNC(=O)C*)C(=O)O; X4 = O=C(O)CCCCCCCCCCCCCCCCCCC(=O)NCCOCCOCC(=O)N[C@@H](CCC(=O)N[C@@H](CCC(=O)N[C@@H](CCCCNC(=O)C*)C(=O)O)C(=O)O)C(=O)O; Aib = CC(C)(N)C(=O)O

Columns and labels:
Mus musculus [1] = experiment: Anti-obesity activity in male C57/B16 mouse model of diet-induced obesity assessed as reduction in body weight at 30 nmol/kg, sc administered every 3 days for 46 days and measured every 3 days relative to control; type: functional, organism-based; set-up: scale not given: the % may be the effect or the level left; conditions: time 46.0 day
Mus musculus [2] = experiment: Hypoglycemic effect in male db/db mouse model assessed as reduction in body weight at 30 nmol/kg, sc administered every 3 days for 60 days and measured every 3 days; type: functional, organism-based; conditions: time 60.0 day
Mus musculus [3] = experiment: Hypoglycemic effect in male db/db mouse model assessed as reduction in HbA1c level at 30 nmol/kg, sc administered every 3 days for 60 days and measured on day 18, 31, 37, 52, 58 and 60 by auto-chemistry analyzer; type: functional, organism-based; conditions: time 60.0 day
[4] = target: T1, Gastric inhibitory polypeptide receptor (Homo sapiens, UniProt P48546); experiment: Agonist activity at human GIPR expressed in CHO cells assessed as increase in cAMP production incubated for 30 mins by Eu-cAMP tracer based microplate reader analysis; type: functional, cell-based
T1 sequence (P48546 whole entry): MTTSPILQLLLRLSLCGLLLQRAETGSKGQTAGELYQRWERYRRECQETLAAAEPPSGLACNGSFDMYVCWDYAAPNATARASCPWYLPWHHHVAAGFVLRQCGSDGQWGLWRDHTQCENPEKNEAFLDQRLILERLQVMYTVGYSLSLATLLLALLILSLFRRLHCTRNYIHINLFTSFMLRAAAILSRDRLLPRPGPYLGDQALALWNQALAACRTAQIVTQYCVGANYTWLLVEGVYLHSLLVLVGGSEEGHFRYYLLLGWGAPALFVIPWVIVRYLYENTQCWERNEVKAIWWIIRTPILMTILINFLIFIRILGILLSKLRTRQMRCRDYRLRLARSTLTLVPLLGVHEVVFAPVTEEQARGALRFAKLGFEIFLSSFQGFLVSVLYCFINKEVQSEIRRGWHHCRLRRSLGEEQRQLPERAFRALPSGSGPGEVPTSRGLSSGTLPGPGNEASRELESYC

[5] = target: Glucagon-like peptide 1 receptor (Homo sapiens, UniProt P43220); experiment: Agonist activity at human GLP-1R expressed in CHO cells assessed as increase in cAMP production incubated for 30 mins by Eu-cAMP tracer based microplate reader analysis; type: functional, cell-based
Glucagon-like peptide 1 receptor, sequence (P43220 whole entry): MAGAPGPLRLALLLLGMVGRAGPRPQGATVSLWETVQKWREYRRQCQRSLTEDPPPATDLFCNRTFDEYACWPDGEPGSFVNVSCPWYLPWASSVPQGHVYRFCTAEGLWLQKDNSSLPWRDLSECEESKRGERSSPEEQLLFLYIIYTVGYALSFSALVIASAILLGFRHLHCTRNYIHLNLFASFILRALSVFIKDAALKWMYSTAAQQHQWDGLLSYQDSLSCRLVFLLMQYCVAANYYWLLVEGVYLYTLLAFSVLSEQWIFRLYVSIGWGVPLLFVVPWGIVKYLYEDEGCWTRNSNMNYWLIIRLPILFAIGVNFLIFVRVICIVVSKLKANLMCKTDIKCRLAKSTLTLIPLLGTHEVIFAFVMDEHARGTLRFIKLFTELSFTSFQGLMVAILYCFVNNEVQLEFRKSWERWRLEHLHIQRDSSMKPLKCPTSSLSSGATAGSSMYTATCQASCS

Mus musculus [6] = experiment: Glucose-lowering effect in male ICR mouse assessed as reduction in plasma glucose AUC (0 to 72 hrs) at 30 nmol/kg, sc pretreated for 71 hrs followed by […] administration and measured after 60 mins by oral glucose tolerance test; type: functional, organism-based
Mus musculus [7] = experiment: Anti-obesity activity in male C57/B16 mouse model of diet-induced obesity assessed as reduction in body weight at 10 nmol/kg, sc administered every 3 days for 46 days and measured every 3 days relative to control; type: functional; set-up: scale not given: the % may be the effect or the level left; conditions: time 46 day
Mus musculus [8] = experiment: Hypoglycemic effect in male db/db mouse model assessed as blood glucose level at 30 nmol/kg, sc administered every 3 days for 31 days and measured 72 hrs post each dose; type: functional, organism-based; conditions: time 31.0 day
Mus musculus [9] = experiment: Hypoglycemic effect in male db/db mouse model assessed as reduction in food intake at 30 nmol/kg, sc administered every 3 days for 60 days and measured every 3 days; type: functional, organism-based; conditions: time 60.0 day
[10] = Tmax in Beagle dog at 10 nmol/kg, sc administered as single dose and measured upto 168 hrs by LC-MS/MS analysis; type: ADME, organism-based, Canis lupus familiaris; conditions: Beagle, in vivo, read-out: Tmax
[11] = Cmax in Beagle dog at 10 nmol/kg, sc administered as single dose and measured upto 168 hrs by LC-MS/MS analysis; type: ADME, organism-based, Canis lupus familiaris; conditions: Beagle, in vivo, read-out: Cmax
[12] = AUC (0 to 168 hrs) in Beagle dog at 10 nmol/kg, sc administered as single dose and measured upto 168 hrs by LC-MS/MS analysis; type: ADME, organism-based, Canis lupus familiaris; conditions: Beagle, in vivo
[13] = Elimination half life in Beagle dog at 10 nmol/kg, sc administered as single dose and measured upto 168 hrs by LC-MS/MS analysis; type: ADME, organism-based, Canis lupus familiaris; conditions: Beagle, in vivo, read-out: beta t1/2 (converted)
Mus musculus [14] = experiment: Reduction in body weight in male ICR mouse at 30 nmol/kg, sc measured for 4 days; type: functional, organism-based; conditions: time 4.0 day

Row | Molecule | Activity (Mus musculus [1]) | Activity (Mus musculus [2]) | Activity (Mus musculus [3]) | EC50 [4] | EC50 [5] | Activity (Mus musculus [6]) | Activity (Mus musculus [7]) | Activity (Mus musculus [8]) | Activity (Mus musculus [9]) | Tmax [10] | Cmax [11] | AUC(0-t) at 168 h [12] | half-life [13] | Activity (Mus musculus [14])
1 | SEMAGLUTIDE | 10% | inactive | Active | – | – | – | – | – | – | – | – | – | – | –
2 | CC(C)C[C@H](NC(=O)[C@H](CC(C)C)NC(=O)[C@H](Cc1c[nH]c2ccccc12)NC(=O)[C@H](CCC(N)=O)NC(=O)[C@@H](NC(=O)[C@H](Cc1ccccc1)NC(=O)[C@H](CC(C)C)NC(=O)[C@H](CCCCN)NC(=O)[C@H](C)NC(=O)[C@H](C)NC(=O)[C@H](CCC(N)=O)NC(=O)[C@H](CSCC(=O)NCCCC[C@H](NC(=O)[C@@H](N)CCCCNC(=O)[C@@H](N)CCCCNC(=O)CC[C@H](NC(=O)CCCCCCCCCCCCCCCCCCC(=O)O)C(=O)O)C(=O)O)NC(=O)[C@H](CCC(=O)O)NC(=O)[C@H](CC(C)C)NC(=O)[C@H](Cc1ccc(O)cc1)NC(=O)[C@H](Cc1ccc(O)cc1)NC(=O)[C@H](CO)NC(=O)[C@H](Cc1ccc(O)cc1)NC(=O)[C@H](CC(=O)O)NC(=O)[C@H](CO)NC(=O)[C@@H](NC(=O)[C@H](Cc1ccccc1)NC(=O)[C@@H](NC(=O)CNC(=O)[C@H](CCC(=O)O)NC(=O)C(C)(C)NC(=O)[C@@H](N)Cc1ccc(O)cc1)[C@@H](C)O)[C@@H](C)O)C(C)C)C(=O)N[C@@H](C)C(=O)NCC(=O)NCC(=O)N1CCC[C@H]1C(=O)N[C@@H](CO)C(=O)N[C@@H](CO)C(=O)NCC(=O)N[C@@H](C)C(=O)N1CCC[C@H]1C(=O)N1CCC[C@H]1C(=O)N1CCC[C@H]1C(=O)N[C@@H](CO)C(N)=O (H-Y[Aib]EGTFTSDYSYYLEC(X1)QAAKLFVQWLLAGGPSSGAPPPS-NH2) | – | – | – | 12 pM | 520 pM | Active | – | – | – | – | – | – | – | –
3 | CC(C)C[C@H](NC(=O)[C@H](CC(C)C)NC(=O)[C@H](Cc1c[nH]c2ccccc12)NC(=O)[C@H](CCC(N)=O)NC(=O)[C@@H](NC(=O)[C@H](Cc1ccccc1)NC(=O)[C@H](CC(C)C)NC(=O)[C@H](CSCC(=O)NCCCC[C@H](NC(=O)[C@@H](N)CCCCNC(=O)[C@@H](N)CCCCNC(=O)CC[C@H](NC(=O)CCCCCCCCCCCCCCCCCCC(=O)O)C(=O)O)C(=O)O)NC(=O)[C@H](C)NC(=O)[C@H](C)NC(=O)[C@H](CCC(N)=O)NC(=O)[C@H](CCCCN)NC(=O)[C@H](CCC(=O)O)NC(=O)[C@H](CC(C)C)NC(=O)[C@H](Cc1ccc(O)cc1)NC(=O)[C@H](Cc1ccc(O)cc1)NC(=O)[C@H](CO)NC(=O)[C@H](Cc1ccc(O)cc1)NC(=O)[C@H](CC(=O)O)NC(=O)[C@H](CO)NC(=O)[C@@H](NC(=O)[C@H](Cc1ccccc1)NC(=O)[C@@H](NC(=O)CNC(=O)[C@H](CCC(=O)O)NC(=O)C(C)(C)NC(=O)[C@@H](N)Cc1ccc(O)cc1)[C@@H](C)O)[C@@H](C)O)C(C)C)C(=O)N[C@@H](C)C(=O)NCC(=O)NCC(=O)N1CCC[C@H]1C(=O)N[C@@H](CO)C(=O)N[C@@H](CO)C(=O)NCC(=O)N[C@@H](C)C(=O)N1CCC[C@H]1C(=O)N1CCC[C@H]1C(=O)N1CCC[C@H]1C(=O)N[C@@H](CO)C(N)=O (H-Y[Aib]EGTFTSDYSYYLEKQAAC(X1)LFVQWLLAGGPSSGAPPPS-NH2) | – | Active | Active | 60 pM | 180 pM | Active | 21% | Active | Active | 18.7 h | 215 ng/mL | 23700 ng·h/mL | 78.3 h | Active
4 | CC(C)C[C@H](NC(=O)[C@H](CC(C)C)NC(=O)[C@H](Cc1c[nH]c2ccccc12)NC(=O)[C@H](CCC(N)=O)NC(=O)[C@@H](NC(=O)[C@H](Cc1ccccc1)NC(=O)[C@H](CC(C)C)NC(=O)[C@H](CSCC(=O)NCCCC[C@H](NC(=O)CC[C@H](NC(=O)CC[C@H](NC(=O)COCCOCCNC(=O)CCCCCCCCCCCCCCCCCCC(=O)O)C(=O)O)C(=O)O)C(=O)O)NC(=O)[C@H](C)NC(=O)[C@H](C)NC(=O)[C@H](CCC(N)=O)NC(=O)[C@H](CCCCN)NC(=O)[C@H](CCC(=O)O)NC(=O)[C@H](CC(C)C)NC(=O)[C@H](Cc1ccc(O)cc1)NC(=O)[C@H](Cc1ccc(O)cc1)NC(=O)[C@H](CO)NC(=O)[C@H](Cc1ccc(O)cc1)NC(=O)[C@H](CC(=O)O)NC(=O)[C@H](CO)NC(=O)[C@@H](NC(=O)[C@H](Cc1ccccc1)NC(=O)[C@@H](NC(=O)CNC(=O)[C@H](CCC(=O)O)NC(=O)C(C)(C)NC(=O)[C@@H](N)Cc1ccc(O)cc1)[C@@H](C)O)[C@@H](C)O)C(C)C)C(=O)N[C@@H](C)C(=O)NCC(=O)NCC(=O)N1CCC[C@H]1C(=O)N[C@@H](CO)C(=O)N[C@@H](CO)C(=O)NCC(=O)N[C@@H](C)C(=O)N1CCC[C@H]1C(=O)N1CCC[C@H]1C(=O)N1CCC[C@H]1C(=O)N[C@@H](CO)C(N)=O (H-Y[Aib]EGTFTSDYSYYLEKQAAC(X4)LFVQWLLAGGPSSGAPPPS-NH2) | – | – | – | 730 pM | 1250 pM | Active | – | – | – | – | – | – | – | –
